Values after ≈ are worked out from the molar mass of the structure shown. Values joined by “and” are separate entries in the source; they are usually repeats but may differ in a detail not shown here. Equal entries are not always repeated. “Also recorded” adds a separate entry of the source. Where two headings read alike, the source gives them in different places.
Columns and labels:
[1] = test system: M. tuberculosis H37Ra; test: microbe, parasite or virus in culture; format: cell-based, Mycobacterium tuberculosis; conditions: for MIC: Mycobacterium tuberculosis, H37RA
[2] = test system: M. tuberculosis H37Ra PZA^R #6; test: microbe, parasite or virus in culture; format: cell-based; conditions: Mycobacterium tuberculosis, 504 h, pH 6.8, read-out: MIC of PZA
[3] = test system: M. tuberculosis H37Ra PZA^R #78; test: microbe, parasite or virus in culture; format: cell-based; conditions: Mycobacterium tuberculosis, 504 h, pH 6.8, read-out: MIC of PZA
[4] = test system: M. tuberculosis H37Ra PZA^R #98; test: microbe, parasite or virus in culture; format: cell-based; conditions: Mycobacterium tuberculosis, 504 h, pH 6.8, read-out: MIC of PZA
[5] = test system: M. tuberculosis H37Ra PZA^R #106; test: microbe, parasite or virus in culture; format: cell-based; conditions: Mycobacterium tuberculosis, 504 h, pH 6.8, read-out: MIC of PZA
[6] = test system: M. tuberculosis H37Ra PZA^R #186; test: microbe, parasite or virus in culture; format: cell-based; conditions: Mycobacterium tuberculosis, 504 h, pH 6.8, read-out: MIC of PZA
[7] = test system: M. tuberculosis H37Ra; test: microbe, parasite or virus in culture; format: cell-based, Mycobacterium tuberculosis; conditions: for MIC: Mycobacterium tuberculosis, H37RA; remark: listed apart in the source
[8] = test system: M. tuberculosis H37Ra; format: cell-based, Mycobacterium tuberculosis
[9] = test system: M. tuberculosis H37Ra (PZA^S); format: cell-based; conditions: test tubes, PZA-S1 medium, pH 6.8
[10] = test system: H37Ra; test: microbe, parasite or virus in culture; format: cell-based, Mycobacterium tuberculosis
[11] = test system: M. tuberculosis; format: cell-based, Mycobacterium tuberculosis; conditions: pH 6.8

Compound: NC(=O)c1cnccn1 [PZA, Pyrazinamide]
- MIC ([1]; 336 h, pH 6.8): 200 µg/mL (≈ 1620 µM)
- MIC ([1]; pH 6.8, read-out: MICs of PZA): 100 to 200 µg/mL (≈ 812 to 1620 µM)
- MIC ([1]; read-out: MIC of PZA): 50 µg/mL
- increase in MIC between 1/100 and 1/10 inoculum size dilutions ([1]; pH 6.8): 2-8 fold
- MIC [2]: > 800 µg/mL
- MIC [3]: > 800 µg/mL
- MIC [4]: > 800 µg/mL
- MIC [5]: > 800 µg/mL
- MIC [6]: > 800 µg/mL
- MIC for PZA lower in acidic conditions (pH 6.5 and pH 6.0) than in neutral pH 7.0 conditions [7]: 8 fold
- MIC ([7]; pH 5.5, read-out: MIC for PZA): < 12.5 µg/mL
- MIC ([7]; pH 6, read-out: MIC for PZA): 100 µg/mL (≈ 812 µM)
- MIC ([7]; pH 7, read-out: MIC for PZA): 25 µg/mL (≈ 203 µM)
- MIC ([7]; pH 8, read-out: MIC for PZA): 200 µg/mL (≈ 1620 µM)
- MIC ([7]; read-out: MIC for PZA): 200 µg/mL (≈ 1620 µM)
- growth ([7]; pH 5): −
- growth ([7]; pH 5.5): − and +
- growth ([7]; pH 6): + and −
- growth ([7]; pH 6.5): + and −
- growth ([7]; pH 7): + and −
- growth ([7]; pH 7.5): − and +
- growth ([7]; pH 8): − and +
- growth ([7]; pH 8.5): − and +
- lawn formation of M. tuberculosis ([8]; pH 6.6): no inhibition
- growth inhibition, paper disk ([8]; pH 6.8): small inhibition zone; also recorded: strong growth inhibition
- lawn formation of M. tuberculosis ([8]; pH 6.8): inhibited lawn formation
- concentration of PZA at which growth was inhibited [9]: 200 µg/mL
- Percentage of CFU to Z 0 [10]: 1.20% and 0.14% and 0.02% and 0.08%
- MIC ([10]; Mycobacterium tuberculosis, H37RA, read-out: MIC of PZA): 50 µg/mL

Compound: COc1nc2ccc(Br)cc2cc1[C@@H](c1ccccc1)[C@@](O)(CCN(C)C)c1cccc2ccccc12 [bedaquiline]
- MIC ([1]; pH 6.8): 0.064 µg/mL (≈ 0.115 µM)

Compound: CC[C@@]1([C@@H]2O[C@@H]([C@H]3O[C@@](O)(CO)[C@H](C)C[C@@H]3C)C[C@@H]2C)CC[C@H]([C@]2(C)CC[C@]3(C[C@H](O)[C@@H](C)[C@@H]([C@@H](C)[C@@H](OC)[C@H](C)C(=O)[O-])O3)O2)O1.[Na+] [compound 343257]
- MIC in the media 7H9 [11]: ≥ 4.33 µg/mL
- MIC in the media L-Ala [11]: 4.33 µg/mL
- MIC in the media SBA [11]: 4.33 µg/mL
- MIC in the media SLac [11]: 8.66 µg/mL

Compound: O=[N+]([O-])c1oc2ccc3ccccc3c2c1CCO [compound 373981]
- MIC in the media 7H9 [11]: ≥ 0.82 µg/mL
- MIC in the media L-Ala [11]: 0.82 µg/mL (≈ 3.19 µM)
- MIC in the media SBA [11]: 0.82 µg/mL (≈ 3.19 µM)
- MIC in the media SLac [11]: 0.82 µg/mL (≈ 3.19 µM)

Compound: O=C(Nc1ccccc1)c1cc(Cl)ccc1O [compound 402600]
- MIC in the media 7H9 [11]: ≥ 24.77 µg/mL
- MIC in the media L-Ala [11]: 1.55 µg/mL (≈ 6.26 µM)
- MIC in the media SBA [11]: 1.55 µg/mL (≈ 6.26 µM)
- MIC in the media SLac [11]: 0.79 µg/mL (≈ 3.19 µM)

Compound: CCCOC(=O)c1ccc([N+](=O)[O-])cc1 [compound 406847]
- MIC in the media 7H9 [11]: ≥ 83.68 µg/mL
- MIC in the media L-Ala [11]: 5.23 µg/mL (≈ 25 µM)
- MIC in the media SBA [11]: 10.46 µg/mL (≈ 50 µM)
- MIC in the media SLac [11]: 5.23 µg/mL (≈ 25 µM)

Compound: O=C(CCc1ccc(O)cc1)c1c(O)cc(O)cc1O [compound 407292]
- MIC in the media 7H9 [11]: ≥ 109.72 µg/mL
- MIC in the media L-Ala [11]: 1.71 µg/mL (≈ 6.23 µM)
- MIC in the media SBA [11]: 3.43 µg/mL (≈ 12.5 µM)
- MIC in the media SLac [11]: 1.71 µg/mL (≈ 6.23 µM)

Compound: Cc1nc(C(=O)N=C(N)N)c(N)nc1-c1ccccc1 [compound 614911]
- MIC in the media 7H9 [11]: ≥ 108.12 µg/mL
- MIC in the media L-Ala [11]: 13.52 µg/mL (≈ 50 µM)
- MIC in the media SBA [11]: 27.03 µg/mL (≈ 100 µM)
- MIC in the media SLac [11]: 27.03 µg/mL (≈ 100 µM)

Compound: Cl.O=C(c1ccc(OCCN2CCCCC2)cc1)c1c(-c2ccc(O)cc2)sc2cc(O)ccc12 [compound 747974]
- MIC in the media 7H9 [11]: ≥ 47.36 µg/mL
- MIC in the media L-Ala [11]: 2.96 µg/mL
- MIC in the media SBA [11]: 2.96 µg/mL
- MIC in the media SLac [11]: 2.96 µg/mL

Compound: O=C(c1ccc(F)c(F)c1Nc1ccc(I)cc1F)N1CC(O)(C2CCCCN2)C1 (stereo not shown) [compound 768068]
- MIC in the media 7H9 [11]: ≥ 26.57 µg/mL
- MIC in the media L-Ala [11]: 13.28 µg/mL (≈ 25 µM)
- MIC in the media SBA [11]: 3.32 µg/mL (≈ 6.25 µM)
- MIC in the media SLac [11]: 3.32 µg/mL (≈ 6.25 µM)

Compound: CN1CCN(c2ccc(C(=O)Nc3n[nH]c4ccc(Cc5cc(F)cc(F)c5)cc34)c(NC3CCOCC3)c2)CC1 [compound 774769]
- MIC in the media 7H9 [11]: ≥ 28.03 µg/mL
- MIC in the media L-Ala [11]: 7.01 µg/mL (≈ 12.5 µM)
- MIC in the media SBA [11]: 3.50 µg/mL (≈ 6.24 µM)
- MIC in the media SLac [11]: 3.50 µg/mL (≈ 6.24 µM)

Compound: C=CC(=O)Nc1cc(Nc2nccc(-c3cn(C)c4ccccc34)n2)c(OC)cc1N(C)CCN(C)C [compound 779217]
- MIC in the media 7H9 [11]: ≥ 12.49 µg/mL
- MIC in the media L-Ala [11]: 3.12 µg/mL (≈ 6.24 µM)
- MIC in the media SBA [11]: 3.12 µg/mL (≈ 6.24 µM)
- MIC in the media SLac [11]: 1.60 µg/mL (≈ 3.2 µM)

Compound: CN1CCc2cc3c(c4c2C1Cc1ccccc1-4)OCO3.Cl (stereo not shown) [compound 785164]
- MIC in the media 7H9 [11]: ≥ 13.97 µg/mL
- MIC in the media L-Ala [11]: 6.98 µg/mL
- MIC in the media SBA [11]: 3.49 µg/mL
- MIC in the media SLac [11]: 1.75 µg/mL

Compound: COc1cc2c(cc1O)C[C@H]1c3c(cc4c(c3-2)OCO4)CCN1C [compound 785178]
- MIC in the media 7H9 [11]: ≥ 16.27 µg/mL
- MIC in the media L-Ala [11]: 8.13 µg/mL (≈ 25 µM)
- MIC in the media SBA [11]: 4.07 µg/mL (≈ 12.5 µM)
- MIC in the media SLac [11]: 4.07 µg/mL (≈ 12.5 µM)

Compound: CC[C@@H](CO)NCCN[C@@H](CC)CO [ethambutol]
- MIC ([1]; 336 h, pH 6.8): 2 µg/mL (≈ 9.79 µM)
- MIC ([1]; pH 6.8): 1.6 µg/mL (≈ 7.83 µM)

Compound: CCc1cc(C(N)=S)ccn1 [ethionamide]
- MIC ([1]; pH 6.8): 0.5 µg/mL (≈ 3.01 µM)

Compound: NNC(=O)c1ccncc1 [isoniazid]
- MIC ([1]; 336 h, pH 6.8): 0.02 µg/mL (≈ 0.146 µM)
- MIC ([1]; pH 6.8): 0.06 µg/mL (≈ 0.438 µM)

Compound: CC(=O)NC[C@H]1CN(c2ccc(N3CCOCC3)c(F)c2)C(=O)O1 [linezolid]
- MIC ([1]; pH 6.8): 2 µg/mL (≈ 5.93 µM)

Compound: COc1c(N2C[C@@H]3CCCN[C@@H]3C2)c(F)cc2c(=O)c(C(=O)O)cn(C3CC3)c12 [moxifloxacin]
- MIC ([1]; pH 6.8): 0.25 µg/mL (≈ 0.623 µM)

Compound: CO[C@H]1/C=C/O[C@@]2(C)Oc3c(C)c(O)c4c(O)c(c(/C=N/N5CCN(C)CC5)c(O)c4c3C2=O)NC(=O)/C(C)=C\C=C\[C@H](C)[C@H](O)[C@@H](C)[C@@H](O)[C@@H](C)[C@H](OC(C)=O)[C@@H]1C [rifampin]
- MIC ([1]; 336 h, pH 6.8): 0.13 µg/mL (≈ 0.158 µM)
- MIC ([1]; pH 6.8): 0.06 µg/mL (≈ 0.0729 µM)

Compound: [H]/N=C(/N)N[C@H]1[C@H](O)[C@@H](O)[C@H](O[C@@H]2O[C@@H](C)[C@](O)(C=O)[C@H]2O[C@@H]2O[C@@H](CO)[C@H](O)[C@@H](O)[C@@H]2NC)[C@@H](N/C(N)=N\[H])[C@@H]1O [streptomycin]
- MIC ([1]; pH 6.8): 0.25 µg/mL (≈ 0.43 µM)
